Data taken from ChEMBL document CHEMBL2203104, “Recent advances in antitubercular natural products” (Eur J Med Chem, 2012).
Values after ≈ are worked out from the molar mass of the structure shown. Numbered stars: 1 amine (or outer) side, 2 acyl side, 3 side chain; on linkers, the order of the positions; unused ones are H or OH. Square brackets hold non-standard residues; d marks the D form. Peptide text beside a SMILES is read from it. * marks the point of attachment. X1 = CCC(=O)C[C@@H](O)C[C@@H](C)C[C@H](N[*:1])C(=O)[*:2]; Alaψ(CH2NMeCH2CH2OH) = C[C@@H](CN(C)CCO)N*; Decanoyl(2R-Me) = CCCCCCCC[C@@H](C)C(=O)*; Aib = CC(C)(N)C(=O)O

Tests used:
Type in all cases: functional
[1] = tested on: Mycobacterium tuberculosis; assay: Antimycobacterial activity against Mycobacterium tuberculosis H37Ra
[2] = tested on: Mycobacterium tuberculosis; assay: Antimycobacterial activity against Mycobacterium tuberculosis
[3] = tested on: Mycobacterium tuberculosis; assay: Antimycobacterial activity against Mycobacterium tuberculosis isolate CIBIN/UMF 15:19
[4] = tested on: Mycobacterium tuberculosis; assay: Antimycobacterial activity against Mycobacterium tuberculosis H37Rv ATCC 27294
[5] = tested on: Mycobacterium tuberculosis; assay: Antimycobacterial activity against Mycobacterium tuberculosis H37Rv; settings: Mycobacterium tuberculosis, H37Rv; read-out: MIC

SMILES	MIC [1]	other results
O=C1C=C[C@@H](OC(=O)/C=C/c2ccccc2)[C@@H]([C@H]2O[C@@H]2c2ccccc2)O1 [HOWIININ A]	6.25 µg/mL	
C=C1C(=O)O[C@H]2[C@H]1[C@@H](OC(=O)/C(C)=C\C)C[C@@]1(C)OC(=CC1=O)C(=C)[C@H]2O [ISOCENTRATHERIN]	3.1 µg/mL	
C=C(C)C(=O)O[C@H]1C[C@@]2(C)OC(=CC2=O)C(=C)[C@@H](O)[C@H]2OC(=O)C(=C)[C@@H]21 [ISOGOIAZENSOLIDE]	1.5 µg/mL	
COc1c(-c2ccccc2)oc2c3c(ccc2c1=O)OC(C)(C)C=C3 [KARANJACHROMENE]	12.5 µg/mL	
O=c1cc(-c2ccccc2)oc2c1ccc1occc12 [LANCEOLATIN B]	50 µg/mL	
O=C1c2ccccc2-c2c3c(cc4ccnc1c24)OCO3 [LIRIODENINE]		MIC [2]: 12.5 µg/mL
C=C1C(=O)O[C@@H]2/C=C(/CO)C3=CC(=O)[C@@](C)(C[C@H](OC(=O)/C(C)=C/C)[C@@H]12)O3 [LYCHNOPHOROLIDE B]	6.2 µg/mL	
Oc1ccc2c(c1)OC[C@H]1c3cc4c(cc3O[C@@H]21)OCO4 [MAACKIAIN]	50 µg/mL	
O=C(CCCCCCCCc1ccccc1)c1c(O)cccc1O [MALABARICONE A]	25 µg/mL	
COc1c(O)cc2oc3cc(O)c(CC=C(C)C)c(O)c3c(=O)c2c1CC=C(C)C [MANGOSTIN]		MIC [2]: 15.2 µg/mL
COC(=O)/C=C/c1ccc(O)c(O)c1 [METHYLCAFFEATE]	25 µg/mL	
CC(C)[C@H]1CC[C@H]2[C@@H]3C=C[C@](C)(O)CC[C@]3(C)CC[C@]12CO [MULINOL]		MIC [3]: 12.5 µg/mL (≈ 40.8 µM); MIC [4]: 12.5 µg/mL (≈ 40.8 µM)
CC1COc2c(N3CCN(C)CC3)c(F)cc3c(=O)c(C(=O)O)cn1c23 (stereo not given) [OFLOXACIN]		MIC [3]: 0.125 µg/mL (≈ 0.346 µM); MIC [4]: 0.125 µg/mL (≈ 0.346 µM)
COc1cccc2c1C(=O)c1nccc3cc4c(c-2c13)OCO4 [OXOSTEPHANINE]		MIC [2]: 50 µg/mL
CCCCC/C=C/C=C/C(=O)NCC(C)C [PELLITORIN]	50 µg/mL	
C=C(C)CC(O)c1c(OC)cc(O)c2c(=O)cc(C)oc12 (stereo not given) [PERFORAMONE B]	25 µg/mL	

SMILES	MIC [1]	other results
CC1(C)C=Cc2c(cc(O)c3c(=O)cc(CO)oc23)O1 [PERFORAMONE D]	25 µg/mL	
CC(C)C(O)C(=O)N/C=C\C=C/NC(=O)C(O)C(C)C (stereo not given) [PHOMOENAMIDE]		MIC [2]: 6.25 µg/mL
C=C[C@@]1(C)C=C2CC[C@@H]3[C@](C)(CCC[C@@]3(C)C(=O)O)[C@H]2CC1 [PIMARIC ACID]		MIC [2]: 50 µg/mL
COc1c2ccoc2cc2oc(-c3ccccc3)cc(=O)c12 [PINNATIN]	12.5 µg/mL	
O=C1C[C@@H](c2ccccc2)Oc2cc(O)cc(O)c21 [PINOCEMBRIN]	12.5 µg/mL	
CC[C@H](C)[C@H]1C(=O)N[C@@H](Cc2ccc(OCC=C(C)C)cc2)C(=O)N(C)[C@@H](C)C(=O)O[C@H](Cc2ccccc2)C(=O)N2CCC[C@H]2C(=O)N[C@@H](CO)C(=O)N1C [PULLULARIN A]	25 µg/mL	
CC(C)=CCOc1ccc(C[C@@H]2NC(=O)[C@H](C(C)C)N(C)C(=O)[C@H](CO)NC(=O)[C@@H]3CCCN3C(=O)[C@@H](Cc3ccccc3)OC(=O)[C@H](C)N(C)C2=O)cc1 [PULLULARIN C]	50 µg/mL	
NC(=O)c1cnccn1 [PYRAZINAMIDE]	810 µM	MIC [5]: 810 µM (≈ 99.7 µg/mL)
C/C=C/C(=O)OC[C@H]1O[C@@H](Oc2cccc3cc(C)c(C(C)=O)c(O)c23)[C@H](O)[C@@H](O)[C@@H]1O [RUMEXNEPOSIDE A]		MIC [2]: 20.7 µM
CSCCC(NC(=O)NC(Cc1c[nH]c2ccccc12)C(=O)O)C(=O)NC(C(=O)N/C=C1\C[C@@H](O)[C@H](n2ccc(=O)[nH]c2=O)O1)C(C)N(C)C(=O)C(N)Cc1cccc(O)c1 (stereo not given in full) [SANSANMYCIN A]		MIC [4]: 16 µg/mL (≈ 18.5 µM)
CSCCC(NC(=O)NC(Cc1c[nH]c2ccccc12)C(=O)O)C(=O)NC(C(=O)N/C=C1\C[C@@H](O)[C@H](n2ccc(=O)[nH]c2=O)O1)C(C)N(C)C(=O)C1Cc2cc(O)ccc2C(C)(C)N1 (stereo not given in full) [SANSANMYCIN F]		MIC [4]: 16 µg/mL (≈ 17.7 µM)
CC(C)CC(NC(=O)NC(Cc1c[nH]c2ccccc12)C(=O)O)C(=O)NC(C(=O)N/C=C1\C[C@@H](O)[C@H](n2ccc(=O)[nH]c2=O)O1)C(C)N(C)C(=O)C1Cc2cc(O)ccc2C(C)(C)N1 (stereo not given in full) [SANSANMYCIN G]		MIC [4]: 16 µg/mL (≈ 18.1 µM)
CCCCC/C=C/C=C/C(=O)N1CCCC1 [SARMENTINE]	50 µg/mL	
O=C(/C=C/CC/C=C/c1ccc2c(c1)OCO2)N1CCCC1 [SARMENTOSINE]	50 µg/mL	
COc1cc(O)c2c(O)c(C(C)=O)c(C)cc2c1 [TORACHRYSONE]		MIC [2]: 6.1 µM
CCCCCCCC[C@@H](C)C(=O)N1CCC[C@H]1C(=O)N[C@@H](C[C@H](C)C[C@H](O)CC(=O)CC)C(=O)NC(C)(C)C(=O)NC(C)(C)C(=O)N[C@H](C(=O)N[C@H](C(=O)NC(C)(C)C(=O)NC(C)(C)C(=O)N[C@@H](C)CN(C)CCO)C(C)C)[C@@H](C)CC [TRICHODERIN A] ({Decanoyl(2R-Me)}-P[X1][Aib][Aib]IV[Aib][Aib]-{Alaψ(CH2NMeCH2CH2OH)})	25 µg/mL	
